We go through 15 compounds from patent US20070161697A1, “Hydrazide type compounds and the use thereof in pharmaceutical compositions for the treatment of cardiovascular diseases” (priority 2004, published 2007).

Where a name gives a salt, the structure may show the parent alone. Read-outs that look alike come from different tables or passages of the source.

Experiment [1] relates to THP1 cells. Put plainly: Inhibition of binding and accumulation of cyanine 3-marked LDLox as lipid vesicles in differentiated THP1 macrophage cells. Type of experiment: cell-based. The conditions noted are these: Homo sapiens, 2.5 μM. On the procedure:
The culture medium may be replaced every two days.
In the present example, the accumulation of lipid vesicles within the cell was measured using THP1 cells following fixation with paraformaldehyde in PBS medium using a solution containing a fluorescent marker of the Oil Red O type in order to visualise the vesicles. The image of the cells rich in vesicles was analysed using a microscope ecqluipped with a CCD camera and software necessary for the analysis.
The medium was replaced every 2-3 days.
The differentiated THP-1 were subsequently incubated with LDLox coupled with cyanine-3 (1.5 μg/ml) in the presence or absence of the molecule CGP02-01 (concentrations of between 10^−5M and 3.1.6 10^−10M) for 24 hours at 37° C., 5% CO2. […] Each image was analysed and quantified with the MetaMorph software (Universal Imaging).

Experiment [2] relates to Wistar rats. Briefly: Total cholesterol in plasma, rats on dietary regimen rich in fructose. It is filed as in vivo. The conditions noted are these: 50 mg/kg oral, 3 weeks of treatment. On the procedure: Secondly, the activity of the compound CGP 02-01 was studied using a reference rat-fructose model. Groups of Wistar rats (n=12) were subjected for 3 weeks to a dietary regimen containing […] of fructose. Under these conditions, the rats develop a metabolic syndrome comprising hyperglycaemia, hyperinsulinaemia, hypercholesterolaemia and hypertriglyceridaemia. Groups of rats subsequently received by forced feeding 50 mg/kg of the compound CGP 02-01 dissolved in a 2% tween solution prepared in methylcellulose. The blood samples for the biochemical analyses were performed after 1, 2 and 3 weeks. Independent groups of rats wee treated under the same conditions with metformin hydrochloride at a dose of 50 mg/kg. The metformin served as a reference in this metabolic syndrome model. The circulating total cholesterol may be measured by enzymatic assay using the commercially available kit. This assay may for example use an enzymatic sequence of the cholesterol-esterase/cholesteroloxydase/chromogenic peroxidase type. In summary, the total esterified cholesterol is transformed into free cholesterol and fatty acid by the action of cholesterol esterase. The non-esterified cholesterol is subsequently measured by the formation of quinoeimine in the presence of cholesterol oxidase and peroxidise. The intensity of the quinoneimine coloration is proportional to the quantity of cholesterol present in the sample.

For experiment [3], the system named is Wistar rats. Briefly: Circulating triglycerides, rats on dietary regimen rich in fructose. It is filed as in vivo. The conditions noted are these: oral. As for the experimental part:
Secondly, the activity of the compound CGP 02-01 was studied using a reference rat-fructose model. Groups of Wistar rats (n=12) were subjected for 3 weeks to a dietary regimen containing […] of fructose. […] Groups of rats subsequently received by forced feeding 50 mg/kg of the compound CGP 02-01 dissolved in a 2% tween solution prepared in methylcellulose. The blood samples for the biochemical analyses were performed after 1, 2 and 3 weeks. Independent groups of rats wee treated under the same conditions with metformin hydrochloride at a dose of 50 mg/kg. The metformin served as a reference in this metabolic syndrome model. Assay of serum triglycerides may be performed enzymatically using the commercially available kit. One may use kits from Biomérieux for example (ref. 61.238). In summary, the triglycerides are treated with a lipase in order to generate fatty acids. In the presence of ATP, the glycerol is transformed by glycerokinase into glycerol 3 phosphate. The glycerol 3 phosphate is subsequently transformed into dihydroxyacetone in generating oxygenated water (H202) which may be detected by formation of quinoneimine in the presence of parachlorophenol, amino-4-antipyrin and peroxidase. The intensity of the quinoneimine coloration is subsequently measured at 505 nm. This coloration is proportional to the quantity of triglycerides present in the sample.

For experiment [4], the system named is Wistar rats. Briefly: Insulin in plasma, rats on dietary regimen rich in fructose. It is filed as in vivo. The conditions noted are these: 50 mg/kg oral. On the procedure: Secondly, the activity of the compound CGP 02-01 was studied using a reference rat-fructose model. Groups of Wistar rats (n=12) were subjected for 3 weeks to a dietary regimen containing […] of fructose. […] Groups of rats subsequently received by forced feeding 50 mg/kg of the compound CGP 02-01 dissolved in a 2% tween solution prepared in methylcellulose. The blood samples for the biochemical analyses were performed after 1, 2 and 3 weeks. Independent groups of rats wee treated under the same conditions with metformin hydrochloride at a dose of 50 mg/kg. The metformin served as a reference in this metabolic syndrome model. Assay of insulin in plasma may be performed by radioimmunological assay using commercially available kits comprising specific anti-insulin antibodies of mice or rats. One may for example use the rat/mouse ELISA kits, Linco research (ref. EZRMI-13K).

The subject of experiment [5] is THP1 cells. Briefly: Inhibition of binding and accumulation of cyanine 3-marked LDLox as lipid vesicles in differentiated THP1 macrophage cells. It is filed as cell-based. The conditions noted are these: 3 μg/ml oxLDL-cyanine 3, 25 hours, different concentrations, FIG. 7.
Setting [6] is: THP-1, cells expressing the scavenger CD36, lipoproteins marked with cyanine 3, read-out: Inhibition of accumulation of LDLox in (%).
Where [7] appears, read: THP-1 cells, 24 hours, read-out: Inhibition at 2.5 μM on THP-1 cells (24 hours).

As a reminder, the inhibition is how much of the control response was suppressed. As to `CCN(CC)c1ccc(/C=N/NC(=O)c2ccc(OC)c(OC)c2)c(O)c1` [CGP02-17, 3,4-dimethoxybenzoic acid (4-diethylamino-2-hydroxy-benzylidene)-hydrazide], the inhibition at 2.5 µM with THP1 cells [1] (setting [6]) and in the experiment with THP1 cells [1] (setting [7]) was 88% each time.
Turning to `CN(C)C(=N)N=C(N)N` [Metformin, metformin hydrochloride, reference compound], the “Reduction in total cholesterol” value with Wistar rats [2] turned out to be 16%. The “Plasma total cholesterol level” value with Wistar rats [2] (control 0.79±0.05) was 0.66 ± 0.02 g/L. In the experiment with Wistar rats [3] (50 mg/kg, 3 weeks, control 1.39±0.13), this compound returned a Plasma triglyceride level of 1.21 ± 0.08 g/L. Further, in the experiment with Wistar rats [3] (same conditions), the “Effect on plasma triglyceride level” value is listed as “does not have any effect”. For the same compound, the “Variation (reduction) of insulin level” value with Wistar rats [4] is 16.2%.
Turning to `Cc1nn(-c2ccccc2)c(C)c1/C=N/NC(=O)c1ccc([N+](=O)[O-])o1` [CGP02-12], the inhibition at 2.5 µM with THP1 cells [1] (setting [6]) and in the experiment on THP1 cells [1] (setting [7]) was 43% each time.
For the compound `O=C(N/N=C/c1cc(Br)cc(Br)c1O)c1cc2ccccc2s1` [CGP02-18, benzo[b]thiophene-2-carboxylic acid (3,5-dibromo-2-hydroxy-benzylidene)-hydrazide], the inhibition at 2.5 µM with THP1 cells [1] (setting [6]) and in the experiment with THP1 cells [1] (setting [7]) was 78% in each case.
For the compound `COc1cc(O)c(/C=N/NC(=O)C=Cc2ccco2)c(OC)c1` (stereo in doubt) [CGP02-02, (2Z)-3-(2-furyl)-N′-[(1E)-(2-hydroxy-4,6-dimethoxyphenyl)methylene] acrylohydrazide], the inhibition at 2.5 µM with THP1 cells [1] (setting [6]) and in the experiment on THP1 cells [1] (setting [7]) was 64% each time. In addition, the “Inhibition of formation of foamy cells” value in the experiment on THP1 cells [5] is given as “inhibition of formation of foamy cells”.
On to `COc1cc(O)c(/C=N/NC(=O)c2ccc(N(C)C)cc2)c(OC)c1` [CGP02-04], for which the inhibition at 2.5 µM in the experiment with THP1 cells [1] (setting [6]) and with THP1 cells [1] (setting [7]) was 61% each time.
Turning to `COc1cc(O)c(/C=N/NC(=O)c2ccccc2CCc2ccccc2)c(OC)c1` [CGP02-05, 2-phenethylbenzoic acid (2-hydroxy-4,6-dimethoxy-benzylidene)-hydrazide], the inhibition at 2.5 µM with THP1 cells [1] (setting [6]) and in the experiment on THP1 cells [1] (setting [7]) was 77% throughout.
Turning to `COc1cc(O)c(/C=N/NC(=O)c2c(F)cccc2F)c(OC)c1` [CGP02-13, 2,6-difluorobenzoic acid (2-hydroxy-4,6-dimethoxybenzylidene)-hydrazide], the inhibition at 2.5 µM with THP1 cells [1] (setting [6]) and with THP1 cells [1] (setting [7]) was 68% each time.
`COc1cc(O)c(/C=N/NC(=O)c2ccc(C)s2)c(OC)c1` [CGP02-03, N′-[(1E)-(2-hydroxy-4,6-dimethoxyphenyl)methylene]-5-methylthiophene-2-carbohydrazide]: the inhibition at 2.5 µM in the experiment with THP1 cells [1] (setting [6]) and with THP1 cells [1] (setting [7]) was 82% in each case. Further, the “Inhibition of formation of foamy cells” value with THP1 cells [5] is recorded as “inhibition of formation of foamy cells”.
On to `COc1cc(O)c(/C=N/NC(=O)c2ccco2)c(OC)c1` [CGP02-07, 2-furancarboxylic acid (2-hydroxy-4,6-dimethoxy-benzylidene)-hydrazide], for which the inhibition at 2.5 µM in the experiment on THP1 cells [1] (setting [6]) and in the experiment on THP1 cells [1] (setting [7]) was 63% each time.
Consider `COc1cc(O)c(/C=N/NC(=O)Cc2c[nH]c3ccccc23)c(OC)c1` [CGP02-08, (1H-indol-3-yl) acetic acid (2-hydroxy-4,6-dimethoxybenzylidene)-hydrazide], for which the inhibition at 2.5 µM in the experiment on THP1 cells [1] (setting [6]) and in the experiment with THP1 cells [1] (setting [7]) was 58% throughout.
For the compound `COc1cc(O)c(/C=N/NC(=O)c2ccc(C(F)(F)F)cc2)c(OC)c1` [CGP02-16, 4-trifluoromethylbenzoic acid (2-hydroxy-4,6-dimethoxy-benzylidene)-hydrazide], the inhibition at 2.5 µM in the experiment on THP1 cells [1] (setting [6]) and in the experiment with THP1 cells [1] (setting [7]) was 77% each time.
For the compound `COc1cc(O)c(/C=N/NC(=O)c2ccccc2Oc2ccccc2)c(OC)c1` [CGP02-11, 2-phenoxy-benzoic acid (2-hydroxy-4,6-dimethoxybenzylidene)-hydrazide], the inhibition at 2.5 µM in the experiment on THP1 cells [1] (setting [6]) and with THP1 cells [1] (setting [7]) was 44% throughout.
In the case of `COc1cc(O)c(/C=N/NC(=O)CC2Sc3ccccc3NC2=O)c(OC)c1` (centres unmarked) [CGP02-10], the inhibition at 2.5 µM in the experiment with THP1 cells [1] (setting [6]) and with THP1 cells [1] (setting [7]) was 52% each time.
As for `CCC(=O)Nc1cccc(C(=O)N/N=C/c2c(O)cc(OC)cc2OC)c1` [CGP02-06], the inhibition at 2.5 µM in the experiment on THP1 cells [1] (setting [6]) and in the experiment with THP1 cells [1] (setting [7]) was 71% in each case.
